Results on three compounds are retold here after patent US20100190751A1, “NOVEL COMBINATION OF NERAMEXANE FOR TREATMENT OF NERORDEGENERATIE DISORDERS” (MERZ PHARMA GmbH & CO. KGaA, priority 2007, published 2010).

The subject of experiment [1] is SOD1(G93A) ALS-mouse model. To be noted: Wang et al. 2005; cited from earlier work.
Experiment [2] relates to SOD1(G93A) transgenic mouse model of ALS. Kind of experiment: Motor performance in the running wheel, SOD1(G93A) ALS mouse model. Format: in vivo. To be noted: for Disease Progression (Rev's per 12 hours/day) / Half Maximum Performance / Presymptomatic Performance (Rev's per 12 hours): both gender; for Half Maximum Performance, Difference: versus vehicle control 106.1; for Presymptomatic Performance, Difference (rp 12 hours): versus vehicle control 19,518; for Disease Progression, Difference: versus vehicle control −17.862. The protocol: Drug treatment starts at day 45.
Memantine is supplied by MERZ pharmaceuticals. […] Drugs are dissolved in drinking water. […] Memantine is administered twice a day subcutaneously.
Consumption of drinking water is checked randomly.
4. Motor Performance in the running wheel

Experiment [3] shares this test system. To be noted: both gender; for Age of Disease Onset, Mean age / Age of First Paresis, Mean age / Disease Endstage - Survival, Mean age: treatment from day 45; for Age of Disease Onset, Mean age: riluzole 35 mg/kg day and neramexane (dosage adapted to gender, 50 male/150 female) in drinking water, memantine 20 mg/kg day s.c.; for Age of First Paresis, Mean age / Disease Endstage - Survival, Mean age: same doses as Table 1; for Age of Disease Onset, Difference compared to control: versus vehicle control mean 106.6; for Age of First Paresis, Difference compared to control: versus vehicle control mean 119.7; for Disease Endstage - Survival, Difference compared to control: versus vehicle control mean […].

Consider `CC12CC3CC(C)(C1)CC(N)(C3)C2` [Memantine], for which, in experiment [1], the “Effects regarding disease progression and survival” value is “positive effects”. In experiment [2], the “Disease Progression (Rev's per 12 hours/day)” value was −22.528 Rev's per 12 hours/day; the “Half Maximum Performance” value turned out to be 110.5 days; the “Presymptomatic Performance (Rev's per 12 hours)” value is on record as 10,784 Rev's per 12 hours; the “Half Maximum Performance, Difference” value was 4.4 days. For the same compound, in experiment [2], the “Presymptomatic Performance, Difference (rp 12 hours)” value is given as −8,734 rp 12 hours and the “Disease Progression, Difference” value was −4.666. For the same compound, in experiment [3], the “Age of Disease Onset, Median age” value was determined as 107.5 days; the “Age of First Paresis, Median age” value amounted to 123.0 days; the “Disease Endstage - Survival, Median age” value is given as 134.0 days; the “Age of Disease Onset, Mean age” value worked out at 108.5 days. In experiment [3], the “Age of First Paresis, Mean age” value is reported as 123.7 days; the “Disease Endstage - Survival, Mean age” value is listed as 134.4 days; the “Age of Disease Onset, Difference compared to control” value (“Age of Disease Onset, Difference” below) is recorded as 1.9 days; the “Age of First Paresis, Difference compared to control” value (“Age of First Paresis, Difference” below) amounted to 4.0 days. In experiment [3], the “Disease Endstage - Survival, Difference compared to control” value was found to be 5.1 days.
With `CC1(C)CC(C)(C)CC(C)(N)C1` [Neramexane, 1-amino-1,3,3,5,5-pentamethylcyclohexane], in experiment [2], the “Disease Progression (Rev's per 12 hours/day)” value is reported as −16.108 Rev's per 12 hours/day; the “Half Maximum Performance” value was determined as 109.2 days; the “Presymptomatic Performance (Rev's per 12 hours)” value is on record as 21,096 Rev's per 12 hours; the “Half Maximum Performance, Difference” value is listed as 3.1 days. Also, in experiment [2], the “Presymptomatic Performance, Difference (rp 12 hours)” value was 1,578 rp 12 hours and the “Disease Progression, Difference” value is on record as 1.754. Further, in experiment [3], the “Age of Disease Onset, Median age” value is 107.0 days; the “Age of First Paresis, Median age” value was determined as 124.0 days; the “Disease Endstage - Survival, Median age” value stood at 135.0 days; the “Age of Disease Onset, Mean age” value is 107.8 days. Moreover, in experiment [3], the “Age of First Paresis, Mean age” value is listed as 123.7 days; the “Disease Endstage - Survival, Mean age” value was 135.1 days; the “Age of Disease Onset, Difference” value came to 1.2 days; the “Age of First Paresis, Difference” value worked out at 4.0 days. The “Disease Endstage - Survival, Difference compared to control” value in experiment [3] was 5.8 days.
For the compound `Nc1nc2ccc(OC(F)(F)F)cc2s1` [Riluzole, 2-amino-6-trifluromethoxybenzothiazole], in experiment [2], the “Disease Progression (Rev's per 12 hours/day)” value is recorded as −14.015 Rev's per 12 hours/day; the “Presymptomatic Performance (Rev's per 12 hours)” value is recorded as 20,565 Rev's per 12 hours; the “Presymptomatic Performance, Difference (rp 12 hours)” value is reported as 1,047 rp 12 hours; the “Disease Progression, Difference” value is 3.847. In experiment [3], the “Age of Disease Onset, Median age” value came to 105.0 days; the “Age of First Paresis, Median age” value amounted to 119.0 days; the “Age of Disease Onset, Mean age” value is on record as 106.3 days; the “Age of First Paresis, Mean age” value came out at 120.0 days. For the same compound, in experiment [3], the “Age of Disease Onset, Difference” value was -0.3 days and the “Age of First Paresis, Difference” value came out at 0.3 days.
